These results are taken from patent US20260193271A1, “PAN-KRAS INHIBITOR COMPOUND” (ADLAI NORTYE BIOPHARMA CO., LTD., priority 2022, published 2026).

In assay [1] the test system is SW480 (G12V). Put plainly: In vitro cell proliferation inhibition test (CellTiter-Glo), SW480. Format: cell-based. As to conditions: SW480 colon cell line, KRAS (p.G12V), 72 h co-incubation. In outline:
(§1)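 Cells were seeded at 1000-5000/well by doubling time and cultured overnight at 37 °C, 5% CO2. They were then exposed for 72 h to 10-point, 3-fold compound dilutions (final top 10 μM), and viability was read by CellTiter-Glo luminescence. IC50 came from normalized signals fitted by four-parameter regression.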
On the technique in general: ATP-based viability assays read luminescence as a measure of living cells.

In assay [2] the test system is AsPC-1 (G12D). The assay is described as follows: In vitro cell proliferation inhibition test (CellTiter-Glo), AsPC-1. The class given is cell-based. As to conditions: KRAS (p.G12D), 72 h co-incubation. The method, boiled down:
as §1

One may read the IC50 as the concentration that inhibits the measured activity by half. In the case of `CCn1c(-c2cc(-c3cnn(CC4CCCN4C)c3)cnc2C(C)OC)c2c3cc(ccc31)-c1csc(n1)CC(NC(=O)C1C(C)C1C)C(=O)N1CCCC(N1)C(=O)OCC(C)(C)C2` [Compound 62, (1r,2R,3S)-N-((6^3S,4S,Z)-1^1-ethyl-1^2-(2-((S)-1-methoxyethyl)-5-(1-(((R)-1-methylpyrrolidin-2-yl)methyl)-1H-pyrazol-4-yl)pyridin-3-yl)-10,10-dimethyl-5,7-dioxo-6^1,6^2,6^3,6^4,6^5,6^6-hexahydro-1^1H-8-oxa-2(4,2)-thiazola-1(5,3)-indola-6(1,3)-pyridazinacycloundecaphane-4-yl)-2,3-dimethylcyclopropane-1-carboxamide], the values for the IC50 in assay [1] and in assay [2] (AsPC-1 pancreas cell line) were 3.9 nM and 0.54 nM, respectively.
As for `CCn1c(-c2cc(-c3cn(CC4CCN(C)CC4)nn3)cnc2C(C)OC)c2c3cc(ccc31)-c1csc(n1)C[C@H](NC(=O)[C@H]1C[C@@H]1C)C(=O)N1CCC[C@H](N1)C(=O)OCC(C)(C)C2` (stereo partly drawn) [Compound 65, (1S,2S)-N-((6^3S,4S,Z)-1^1-ethyl-1^2-(2-((S)-1-methoxyethyl)-5-(1-((1-methylpiperidin-4-yl)methyl)-1H-1,2,3-triazol-4-yl)pyridin-3-yl)-10,10-dimethyl-5,7-dioxo-6^1,6^2,6^3,6^4,6^5,6^6-hexahydro-1^1H-8-oxa-2(4,2)-thiazola-1(5,3)-indola-6(1,3)-pyridazinacycloundecaphane-4-yl)-2-methylcyclopropane-1-carboxamide], the IC50 amounted to 150 nM in assay [1] (Homo sapiens) and 12 nM in assay [2] (Homo sapiens, ASPC1, AsPC-1 pancreas cell line).
“(1S,2S)-N-((6^3S,4S,Z)-1^1-ethyl-1^2-(2-((S)-1-methoxyethyl)-5-(1-((R)-1-methylpyrrolidin-3-yl)-1H-pyrazol-4-yl)pyridin-3-yl)-10,10-dimethyl-5,7-dioxo-6^1,6^2,6^3,6^4,6^5,6^6-hexahydro-1^1H-8-oxa-2(4,2)-thiazola-1(5,3)-indola-6(1,3)-pyridazinacycloundecaphane-4-yl)-2-methylcyclopropane-1-carboxamide [Compound 16′]”: the IC50 in assay [1] was determined as 265 nM; in assay [2] (AsPC-1 pancreas cell line) it was 2280 nM.
As for “(1S,2S)-N-((6^3S,4S,Z)-1^1-ethyl-1^2-(2-((S)-1-methoxyethyl)-5-(5-(morpholinomethyl)pyrimidin-2-yl)pyridin-3-yl)-10,10-dimethyl-5,7-dioxo-6^1,6^2,6^3,6^4,6^5,6^6-hexahydro-1^1H-8-oxa-2(4,2)-thiazola-1(5,3)-indola-6(1,3)-pyridazinacycloundecaphane-4-yl)-2-methylcyclopropane-1-carboxamide [Compound 14′]”, the IC50 in assay [1] is 633 nM; in assay [2] (AsPC-1 pancreas cell line), 1180 nM.
Regarding “(1S,2S)-N-((6^3S,4S,Z)-1^1-ethyl-1^2-(6′-((S)-1-methoxyethyl)-4-(morpholinomethyl)-[2,3′-bipyridin]-5′-yl)-10,10-dimethyl-5,7-dioxo-6^1,6^2,6^3,6^4,6^5,6^6-hexahydro-1^1H-8-oxa-2(4,2)-thiazola-1(5,3)-indola-6(1,3)-pyridazinacycloundecaphane-4-yl)-2-methylcyclopropane-1-carboxamide [Compound 11′]”, the IC50 in assay [1] came out at 346 nM; in assay [2] (AsPC-1 pancreas cell line) it was 242 nM.
Take “(1S,2S)-N-((6^3S,4S,Z)-1^1-ethyl-1^2-(6′-((S)-1-methoxyethyl)-5-(morpholinomethyl)-[2,3′-bipyridin]-5′-yl)-10,10-dimethyl-5,7-dioxo-6^1,6^2,6^3,6^4,6^5,6^6-hexahydro-1^1H-8-oxa-2(4,2)-thiazola-1(5,3)-indola-6(1,3)-pyridazinacycloundecaphane-4-yl)-2-methylcyclopropane-1-carboxamide [Compound 12′]”: the results for the IC50 in assay [1] and in assay [2] (AsPC-1 pancreas cell line) were 319 nM and 814 nM, respectively.
As for “(1S,2S)-N-((6^3S,4S,Z)-1^1-ethyl-1^2-(6′-((S)-1-methoxyethyl)-6-(morpholinomethyl)-[2,3′-bipyridin]-5′-yl)-10,10-dimethyl-5,7-dioxo-6^1,6^2,6^3,6^4,6^5,6^6-hexahydro-1^1H-8-oxa-2(4,2)-thiazola-1(5,3)-indola-6(1,3)-pyridazinacycloundecaphane-4-yl)-2-methylcyclopropane-1-carboxamide [Compound 13′]”, the IC50 stood at 236 nM in assay [1] and 302 nM in assay [2] (AsPC-1 pancreas cell line).
The corresponding values for “(1r,2R,3S)-N-((6^3S,4S,Z)-1^1-ethyl-1^2-(2-((S)-1-methoxyethyl)-5-(1-(1-methylazetidin-3-yl)-1H-pyrazol-4-yl)pyridin-3-yl)-10,10-dimethyl-5,7-dioxo-6^1,6^2,6^3,6^4,6^5,6^6-hexahydro-1^1H-8-oxa-2(4,2)-thiazola-1(5,3)-indola-6(1,3)-pyridazinacycloundecaphane-4-yl)-2,3-dimethylcyclopropane-1-carboxamide [Compound 17′]” are 85 nM and 697 nM.
Consider “(1r,2R,3S)-N-((6^3S,4S,Z)-1^1-ethyl-1^2-(2-((S)-1-methoxyethyl)-5-(1-(2-(4-methylpiperazin-1-yl)ethyl)-1H-pyrazol-4-yl)pyridin-3-yl)-10,10-dimethyl-5,7-dioxo-6^1,6^2,6^3,6^4,6^5,6^6-hexahydro-1^1H-8-oxa-2(4,2)-thiazola-1(5,3)-indola-6(1,3)-pyridazinacycloundecaphane-4-yl)-2,3-dimethylcyclopropane-1-carboxamide [Compound 19′]”, for which the IC50 in assay [1] was 16 nM; in assay [2] (AsPC-1 pancreas cell line) it was 33 nM.
The corresponding values for “(1r,2R,3S)-N-((63S,4S,Z)-1^1-(2,2-difluoroethyl)-1^2-(2-((S)-1-methoxyethyl)-5-(2-(morpholinomethyl)pyrimidin-5-yl)pyridin-3-yl)-10,10-dimethyl-5,7-dioxo-6^1,6^2,6^3,6^4,6^5,6^6-hexahydro-1^1H-8-oxa-2(4,2)-thiazola-1(5,3)-indola-6(1,3)-pyridazinacycloundecaphane-4-yl)-2,3-dimethylcyclopropane-1-carboxamide [Compound 48]” are 0.51 nM and 0.54 nM.
